According to ChEMBL document CHEMBL1151480, “Endiandric Acid Analogues from the Roots of Beilschmiedia erythrophloia” (2009):
In brackets after ≈: the same amount, converted by molar mass. Activity calls are given as the source filed them. The calls are words filed in the database; no cut-off is given here.

Tests used:
[1] = tested on: Mycobacterium tuberculosis; assay: Antitubercular activity against Mycobacterium tuberculosis H37Rv after 2 weeks by proportion method; assay type: functional; details: 336 h
P388 = assay: Growth inhibition of mouse P388 cells; assay type: functional, cell-based

Compound	MIC [1] [µg/mL]	growth inhibition (GI) (P388)
COC(=O)[C@@H]1C=C[C@@H]2C[C@H]3[C@H](CCCCCCCc4ccccc4)[C@H]4C=C[C@@H]1[C@@H]2[C@H]43 [ERYTHROPHLOIN C]	50 (≈ 124 µM)	–
CC[C@@H](CO)NCCN[C@@H](CC)CO [ETHAMBUTOL]	6.25 (≈ 30.6 µM)	–
C=C1CC[C@H]2O[C@]2(C)[C@H](O)C[C@@H]2[C@@H]1CC2(C)C [SUBEROSOL B]	28.9 (≈ 122 µM)	Active
